Values after ≈ are worked out from the molar mass of the structure shown. Like-named read-outs stand apart in the source and are kept apart here.
Key:
[1] = Solubility of aspirin in propylene glycol, polyethylene glycol-400 and dimethyl isosorbide; format: physicochemical; conditions: organic solvent or mixture
Method: The bottle was constantly shaken at room temperature for 24 hours. The solution was then filtered for analysis. The determination of aspirin contents in the solubility samples was carried out using a fluorometric technique, in which the aspirin was completely hydrolyzed into salicylic acid, and the fluorescence of salicylic acid was then measured. The concentration of salicylic acid in the samples was determined based on a fluorescence calibration curve of known concentrations of salicylic acid in the range of 5×10^-7 M to 5×10^-6 M. The concentration of salicylic acid so determined was then converted to the concentration of aspirin. The solubility of aspirin in various solvents is expressed in mg/ml. The samples were treated as follows: […] After 30 minutes, when the hydrolysis was complete, 0.5 ml of a 1 N HCl was added to the flask to neutralize the excess sodium hydroxide. The solution was then diluted with a pH 7 phosphate buffer to 25 ml. For fluorescence measurement, 1, 2, 3, and 4 μl of the diluted solution were transferred into different fluorescence cuvettes containing 2 ml of pH 7 buffer. The fluorescence measured from these solutions was then used to determine the aspirin content in the solvents.

[2] = Hydrolysis (stability) studies of aspirin formulations in dimethyl isosorbide; format: physicochemical
Method: No attempt of drying of the drug or the solvent was made prior to the experiment. 25 ml of each of the six formulations were placed in a screw capped bottle which was then kept in a temperature controlled water bath set at a designated temperature. Samples of each of the formulations were pipetted out at selected time intervals, and were immediately analyzed for salicylic acid content. The analysis of salicylic acid was carried out using the fluorometric method previously described. The samples were diluted 1000 times in a volumetric flask, a few μl's of the diluted samples were then transferred into a fluorescence cuvette containing 2 ml of pH 7 buffer for the fluorescence measurement. The hydrolysis studies were carried out at 40, 45, 50, 60 and 70° C. and at room temperature.
The rate constant of aspirin hydrolysis was determined according to the following equation: […]
where Co is the initial concentration of aspirin, C, the concentration of aspirin at time t, and k, the rate constant. For practical purposes, the above equation may be converted to […]

[3] = cited from earlier work
[4] = cited from earlier work; remark: listed apart in the source
[5] = Method: The samples were prepared using USP grade aspirin, which was dried at 110° before use. […] Spectrum b was taken after the sample (containing 10% water) was stored at 70° C. for 96 hours.
[6] = Arrhenius prediction of aspirin degradation and shelf life; format: physicochemical; conditions: 1.00 M aspirin in dimethyl isosorbide
Method: The rate constants determined at various temperatures were used to predict the aspirin degradation at room (25° C.) and refrigeration (5° C.) temperatures using the Arrhenius equation:
log k=log A-Ea /2.303RT (3)
where k is the rate constant at temperature T,A, a constant, R, the gas constant, and Ea, the activation energy of the reaction. A plot of log k versus 1/T should yield a straight line with the slope equal to -Ea /2.303R. For the same reaction, Ea is a constant. From the plot, the rate constants at 25° and 5° can also be calculated. These constants can then be used for the prediction of the shelf life (time for 10% degradation) of the aspirin formulations at room and refrigeration temperatures.
From these values, the shelf-life (time for 10% degradation) of formulation A were predicted to be 230 days at 25° C., and 62.5 months at 5° C.

[7] = format: physicochemical; conditions: dimethyl isosorbide versus propylene glycol and polyethylene glycol-400
Excerpt: Ideally, an anhydrous composition is used to prevent hydrolysis.

gastrointestinal tract = conditions: cited from earlier work

## CC(=O)Oc1ccccc1C(=O)O [Aspirin, acetylsalicylic acid]
[1]; dimethyl isosorbide
  solubility at 24 h: 280 mg/mL (≈ 1550 mM)
[1]; in polyethylene glycol-400, room temperature, 24 hours
  solubility at 24 h: 254 mg/mL (≈ 1410 mM)
[1]; in propylene glycol, room temperature, 24 hours
  solubility at 24 h: 160 mg/mL (≈ 888 mM)
[2]
  cause of aspirin degradation (nmr): hydrolysis is the only cause for aspirin degradation in dimethyl isosorbide
[2]; 50° C., FIG. 3
  kinetic order of aspirin hydrolysis: follows second order kinetics
[3]; apparently anhydrous polyhydric alcohols
  mode of decomposition in polyhydric alcohols (nmr): occurs by transesterification of the acid with the polyhydric alcohol as well as by hydrolysis due to the presence of water
[3]; aqueous, Edward
  hydrolysis kinetics: follows first order kinetics and is subject to acid and base catalysis
[3]; polyethylene glycol-400, prolonged storage, Jun et al
  trans-esterification: undergoes trans-esterification with polyethylene glycol-400 to form salicylic acid and acetylated polyethylene glycol
[4]; 5° C., 0.36 M aspirin in polyethylene glycol-400
  Time for 10% Degradation: 2.90 mos.
[4]; 5° C., 0.36 M aspirin in propylene glycol
  Time for 10% Degradation: 55.8 mos.
[4]; 25° C., 0.36 M aspirin in polyethylene glycol-400
  Time for 10% Degradation: 18.8 days
[4]; 25° C., 0.36 M aspirin in propylene glycol
  Time for 10% Degradation: 151.2 days
[5]; 1 M aspirin in dimethyl isosorbide with 10% (v/v) water, 70° C., 96 hours
  aspirin degradation by nmr: partially hydrolyzed into salicylic acid and acetic acid
[5]; 1 M aspirin in dimethyl isosorbide, no water, heated at 70° for 24 hours
  nmr spectral change: no detectable change was found in the nmr spectrum
[6]; 5° C.
  Time for 10% Degradation: 62.5 mos.
[6]; 25° C.
  Time for 10% Degradation: 230 days
[7]
  aspirin stability compared between solvents: more stable in dimethyl isosorbide than in the other solvents
Gastrointestinal tract; aspirin ingestion, users and patients with gastrointestinal lesions
  gastrointestinal bleeding: severe gastrointestinal bleeding
Gastrointestinal tract; orally in a liquid form or intravenously
  occult bleeding: produces no occult bleeding

— patent US4228162A (priority 1979, dated 1980)
